Each block holds one compound with its values, some of them ahead of it. The source made the active and inactive calls. The calls are words filed in the database; no cut-off is given here.
Experiments:
HEK293 [1] = assay: Induction of IL-8 production in HEK293 cells expressing mouse NOD2 at 5 to 50 uM incubated for 20 hrs by ELISA; format: functional, cell-based; settings: Homo sapiens, dose 5-50 µM
BMDM [2] = assay: Induction of IL-23 production in C57BL/6 mouse BMDM at 1 nmol incubated for 48 hrs by ELISA; format: functional, cell-based
Splenocyte [3] = assay: Improvement in memory response in ovalbumin immunized C57BL/6 mouse splenocytes assessed as increase in IFNgamma level incubated for 72 hrs by ELISA; format: functional, cell-based
BMDM [4] = assay: Induction of IL-6 production in C57BL/6 mouse BMDM at 1 nmol incubated for 48 hrs by ELISA; format: functional, cell-based
BMDM [5] = assay: Induction of IL-1beta production in C57BL/6 mouse BMDM at 1 nmol incubated for 48 hrs by ELISA; format: functional, cell-based
Mus musculus [6] = species on record: Mus musculus; assay: Adjuvanticity in ovalbumin immunized C57BL/6 mouse assessed as increase in anti-OVA IgG titers at 40 nmol boosted with OVA at 1 week and measured after week 3, 4, 5 by ELISA; format: functional, organism-based; settings: time 5.0 weeks
[7] = Toxicity in ovalbumin immunized C57BL/6 mouse assessed as appearance of inflamed skin at tail base at 40 nmol measured after 1 week post immunization; format: tissue-based; settings: in vivo, 168 h, time 1 weeks
2B4 = assay: Induction of NFAT-GFP signal in mouse 2B4 reporter cells expressing mMincle + FcRgamma at 0.1 to 1 nmol incubated for 18 hrs by flow cytometry analysis; format: functional, cell-based; settings: dose 0.1-1 nmol
[8] = Toxicity in ovalbumin immunized C57BL/6 mouse assessed as body weight loss at 40 nmol boosted with OVA at 1 week and measured after week 3, 4, 5 and 6; settings: in vivo, 1008 h, time 6 weeks
Mus musculus [9] = species on record: Mus musculus; assay: Adjuvanticity in ovalbumin immunized C57BL/6 mouse assessed as increase in anti-OVA IgG titers at 40 nmol boosted with OVA at 1 week and measured after week 4, 5, 6 by ELISA; format: functional, organism-based; settings: time 6.0 weeks
[10] = Drug hydrolysis in water at pH 1 assessed as half life by HPLC-UV analysis; format: physicochemical
[11] = Drug hydrolysis in water at pH 4.4 assessed as half life by HPLC-UV analysis; format: physicochemical
[12] = Drug hydrolysis in water at pH 7 assessed as half life by HPLC-UV analysis; format: physicochemical; settings: buffer
BMDM [13] = assay: Induction of IL-23 production in C57BL/6 mouse BMDM cells at 2.5 ug/ml incubated for 48 hrs in presence of 1 nmol [(2R,3S,4S,5R,6R)-3,4,5-trihydroxy-6-[(3R,4S,5S,6R)-3,4,5-trihydroxy-6-[(4-octadecoxybenzoyl)oxymethyl]tetrahydropyran-2-yl]oxy-tetrahydropyran-2-yl]methyl 4-octadecoxybenzoate by ELISA; format: functional, cell-based; settings: dose 2.5 µg/ml
HEK293 [14] = assay: Induction of IL-8 production in HEK293 cells expressing mouse NOD2 at 5 to 50 uM incubated for 20 hrs in presence of 10 to 100 uM (4R)-4-[[(2S)-2-[[(2R)-2-[(3R,4R,5S,6R)-3-acetamido-2,5-dihydroxy-6-(hydroxymethyl)tetrahydropyran-4-yl]oxypropanoyl]amino]propanoyl]amino]-5-amino-5-oxo-pentanoic acid by ELISA; format: functional, cell-based; settings: Homo sapiens, dose 5-50 µM
[15] = Toxicity in ovalbumin immunized C57BL/6 mouse assessed as reactogenicity boosted with OVA at 1 week and measured after week 3, 4, 5 and 6 in presence of (4R)-4-[[(2S)-2-[[(2R)-2-[(3R,4R,5S,6R)-3-acetamido-2,5-dihydroxy-6-(hydroxymethyl)tetrahydropyran-4-yl]oxypropanoyl]amino]propanoyl]amino]-5-amino-5-oxo-pentanoic acid; settings: in vivo, 1008 h, time 6 weeks
Splenocyte [16] = assay: Improvement in memory response in ovalbumin immunized C57BL/6 mouse splenocytes assessed as increase in IFNgamma level incubated for 72 hrs in presence of (4R)-4-[[(2S)-2-[[(2R)-2-[(3R,4R,5S,6R)-3-acetamido-2,5-dihydroxy-6-(hydroxymethyl)tetrahydropyran-4-yl]oxypropanoyl]amino]propanoyl]amino]-5-amino-5-oxo-pentanoic acid by ELISA; format: functional, cell-based
Mus musculus [17] = species on record: Mus musculus; assay: Adjuvanticity in ovalbumin immunized C57BL/6 mouse assessed as increase in anti-OVA IgG titers boosted with OVA at 1 week and measured after week 3, 4, 5 and 6 in presence of (4R)-4-[[(2S)-2-[[(2R)-2-[(3R,4R,5S,6R)-3-acetamido-2,5-dihydroxy-6-(hydroxymethyl)tetrahydropyran-4-yl]oxypropanoyl]amino]propanoyl]amino]-5-amino-5-oxo-pentanoic acid by ELISA; format: functional, organism-based; settings: time 6.0 weeks

SMILES: CCCCCCCCCCCCCCCCCCCCCC(=O)OC[C@@H]1O[C@H](O[C@H]2O[C@H](COC(=O)CCCCCCCCCCCCCCCCCCCCC)[C@@H](O)[C@H](O)[C@H]2O)[C@@H](O)[C@H](O)[C@H]1O
Activity (HEK293 [1]): inactive

SMILES: CCCCCCCCCCCCCCCCCCCOc1ccc(C(=O)OC[C@H]2O[C@H](O[C@H]3O[C@H](COC(=O)c4ccc(OCCCCCCCCCCCCCCCCCC)cc4OCCCCCCCCCCCCCCCCCc4cn(CCCCN(OC)[C@@H]5O[C@H](CO)[C@@H](O)[C@H](O[C@H](C)C(=O)N[C@@H](C)C(=O)N[C@H](CCC(=O)O)C(N)=O)[C@H]5NC(C)=O)nn4)[C@@H](O)[C@H](O)[C@H]3O)[C@H](O)[C@@H](O)[C@@H]2O)c(OCCCCCCCCCCCCCCCCCc2cn(CCCCN(OC)[C@@H]3O[C@H](CO)[C@@H](O)[C@H](O[C@H](C)C(=O)N[C@@H](C)C(=O)N[C@H](CCC(=O)O)C(N)=O)[C@H]3NC(C)=O)nn2)c1
Activity (BMDM [2]): Active | Activity (Splenocyte [3]): Active | Activity (HEK293 [1]): Active | Activity (BMDM [4]): Active | Activity (BMDM [5]): Active | Activity (Mus musculus [6]): Active | Activity [7]: Toxic | Activity (2B4): Active | Activity [8]: Non-Toxic

half-life [10]: 1 h | half-life [11]: 60 h | t1/2 [12]: 1 yr
SMILES: CON(CCCn1cc(CCCCCCCCCCCCCCCCCOc2ccc(C(=O)OC[C@H]3OC(O[C@H]4O[C@H](COC(=O)c5ccc(OCCCCCCCCCCCCCCCCCc6cn(CCCN(OC)[C@H]7O[C@@H](CO)[C@H](O)[C@@H](O[C@H](C)C(=O)N[C@@H](C)C(=O)N[C@H](CCC(=O)O)C(N)=O)[C@@H]7NC(C)=O)nn6)cc5)[C@@H](O)[C@H](O)[C@H]4O)[C@H](O)[C@@H](O)[C@@H]3O)cc2)nn1)[C@@H]1O[C@@H](CO)[C@H](O)[C@@H](O[C@H](C)C(=O)N[C@@H](C)C(=O)N[C@H](CCC(=O)O)C(N)=O)[C@@H]1NC(C)=O (stereo partly drawn)
Activity (BMDM [2]): Active | Activity (Splenocyte [3]): Active | Activity (HEK293 [1]): Active | Activity (BMDM [4]): Active | Activity (Mus musculus [9]): Active | Activity (BMDM [5]): Active | Activity (2B4): Active | Activity [8]: Non-Toxic

SMILES: N[C@H](CCC[C@H](NC(=O)CC[C@@H](N)C(=O)O)C(=O)O)C(=O)O
Activity (BMDM [13]): inactive

SMILES: CCCCCCCCCCCCCCCCCCOc1ccc(C(=O)OC[C@H]2O[C@H](O[C@H]3O[C@H](COC(=O)c4ccc(OCCCCCCCCCCCCCCCCCC)cc4OCCCCCCCCCCCCCCCCCC)[C@@H](O)[C@H](O)[C@H]3O)[C@H](O)[C@@H](O)[C@@H]2O)c(OCCCCCCCCCCCCCCCCCC)c1
Activity (HEK293 [1]): inactive | Activity (HEK293 [14]): Active | Activity [15]: Toxic | Activity (Splenocyte [16]): inactive | Activity (Mus musculus [17]): Active | Activity (2B4): Active
